{"source": "patent US9796755B2", "about": "“Methods of treating depression and other related diseases” (Northwestern University, priority 2009, dated 2017)", "key": {"[1]": {"system": "patients suffering with refractory depression", "conditions": "cited from earlier work"}, "[2]": {"conditions": "literature (Bristow et al. 1996; Parsons et al. 1997); cited from earlier work"}, "rats [3]": {"system": "rats", "test": "Drug discrimination in rats trained to discriminate ketamine from saline", "procedure": "Testing was conducted as described previously (Nicholson K L & Balster R L (2009) The discriminative stimulus effects of N-methyl-D-aspartate glycine-site ligands in NMDA antagonist-trained rats. Psychopharmacology (Berl) 203(2):441-451). Adult male Sprague Dawley rats were trained to discriminate ketamine (10 mg/kg IP) from saline. Animals were then tested following various doses of GLYX-13 administration (3-156 mg/kg SC) and the percent of ketamine lever responding and rates of responding were recorded."}, "GluR1": {"system": "GluR1", "test": "Total and phosphoserine-845 GluR1 by Western blot in medial prefrontal cortex", "format": "in vivo, rat", "conditions": "24 hrs after GLYX-13 3 mg/kg IV or ketamine 10 mg/kg IV", "description": "(§1) Total and Phosphoserine-9 glycogen synthase kinase 3β (GSK-3β) were quantified by ELISA according to the manufacturer's instructions (catalog numbers ADI-900-144 and ADI-900-123A, Assay Designs, USA). Total and phosphoserine-845 GluR1 were quantified by Western blot."}, "β-catenin": {"system": "β-catenin", "test": "Total β-catenin protein level in medial prefrontal cortex", "format": "in vivo, rat", "conditions": "24 hrs after GLYX-13 3 mg/kg IV or ketamine 10 mg/kg IV"}, "rats [4]": {"system": "rats", "test": "Conditioned place preference", "format": "in vivo, rat", "conditions": "GLYX-13 10 mg/kg IV; ketamine 10 mg/kg IV", "procedure": "Animals were trained with GLYX-13 (10 mg/kg, IV), ketamine (10 mg/kg, IV), or saline vehicle (1 mL/kg, IV) utilizing an unbiased two-chamber conditioned place preference apparatus."}, "rats [5]": {"system": "rats", "test": "Porsolt test (Forced Swim Test), systemic dosing", "format": "in vivo, rat", "procedure": "For the evaluation of the antidepressant actions of GLYX-13, the effect of GLYX-13 in the Porsolt test of depression was examined in rats. Porsolt testing is the most commonly used test for assessment of depression in animal model, Porsolt testing, also known as Forced Swim Test, is based on a behavioral trait that is sensitive to changes in affective state. During this test, the animal is placed in a tank (18 cm diameter×45 cm height) filled to 30 cm with 22-23° C. water. After placing the animal in the tank, the amount of time for which the rat is immobile when it stops struggling is measured. Porsolt test is based on the fact that antidepressants increase the latency to immobility and decrease the time for which the rat is immobile. […] The interpretation of the Porsolt test is that the antidepressants reinstate active coping mechanisms and decrease the passive immobility evoked by stress.\nIn order to evaluate the effectiveness of GLYX-13 as antidepressant, three month old FBNF1 rats were separated into two groups of 9 animals. The first group of rats was intravenously injected with 10 mg/kg GLYX-13 and the second group of animals was intravenously injected with PBS vehicle (1 ml/kg) in a blind manner via chronic subdural femoral vein access ports. Both groups of animals were injected 10 to 15 minutes before the start of testing.\nFor Porsolt testing, animals were given a 15 minute pre-test habituation in the tank to induce learned helplessness on day one. Following this, on the subsequent day, the animals were injected with GLYX-13 or vehicle 10-15 minutes before being placed into the tank for a 5 minute test session. After placing the animals in the tank, the amount of time for which each animal is immobile when it stops struggling (Mean Immobility Time) was measured. Decrease in Mean Immobility Time is a measure of the effectiveness of the antidepressant.\nA second experiment was performed in the same manner as Example 1, except that 2-3 month Sprague-Dawley rats were used, and treated with either intravenous (1, 3, 10, 32 mg/kg), subcutaneous (1, 3, 10, 32, 56, 100 mg/kg) injections of GLYX-13 or saline vehicle (1 mg/ml) 15 (i,v.) or 20 (s.c.) min before the start of the final 5 min test session. Ketamine (10 mg/kg i.p.) was given 60 min befbre the start of testing (Garcia et al., (2008) Prog Neuropsychopharmacol Biol Psychiatry, 32, 140-144).\nTo determine whether the antidepressant effect of GLYX-13 was specific to the sequence of the GLXY-13 peptide, mean time (sec) spent floating in the Porsolt test was determined in groups of 12 three-month old Sprague Dawley rats administered with GLYX-13 (TPPT-NH2 (SEQ ID NO: 13); 3 mg/kg , i.v. tail vein), a scrambled peptide (PTPT-NH3(SEQ ID NO: 19); 3 mg/kg i.v. tail vein), or 0.9% saline vehicle (1 ml/kg, i.v. tail vein). Administration occurred 60 min before the 5 min testing session. Animals received a 15 min training swim session one day before dosing.\nTo evaluate whether the anti-depressive and anxiolytic effects of GLYX-13 would persist beyond a few hours, rats were tested in the Porsolt test and the Open Field test, described above. Groups of 10-11 three-month old Sprague-Dawley rats were pretreated with GLYX-13 (3 mg/kg i.v.), ketamine (10 mg/kg i.v.) or saline vehicle injection (1 mg/ml i.v. tail vein) 96 hrs before the start of testing. Animals received a single 15 min. training swim session one day before dosing. Animals were tested 96 hrs post dosing in the Porsolt test without any testing during the intervening period. Open field testing was conducted without pre-habituation 1 day after Porsolt testing (i.e. 120 hrs post dosing). Mean(±SEM) time (sec.) spent floating in the Porsolt test, time spent in the center compartment (sec.), and line crosses in the open field test were determined.\nThe Porsolt test adapted for use in rats was performed as above. […]"}, "rats [6]": {"system": "rats", "test": "Prepulse inhibition", "format": "in vivo, rat", "conditions": "Sprague-Dawley rats; GLYX-13 10 mg/kg IV tested 15 min post injection; ketamine 10 mg/kg IP tested immediately", "procedure": "Animals were given intravenous injections of GLYX-13 (10 mg/kg) or saline via chronic indwelling femoral vein cannulae and tested 15 min post injection, or intraperitoneal ketamine (10 mg/kg) or saline vehicle (1 mL/kg IV or IP respectively) and tested immediately post injection for prepulse inhibition."}, "[7]": {"system": "glycogen synthase kinase 3β (GSK-3β)", "test": "Total and phosphoserine-9 GSK-3β by ELISA in medial prefrontal cortex", "format": "in vivo, rat", "conditions": "24 hrs after GLYX-13 3 mg/kg IV or ketamine 10 mg/kg IV", "description": "as §1"}}, "data": [{"smiles": "C[C@@H]([C@@H](O)c1ccc(O)cc1)N1CCC(O)(c2ccccc2)CC1", "note": "[CPC-101,606]", "values": [{"measurement": "Hamilton Depression Rating Score", "setting": "[1]", "value": "significant reductions"}]}, {"smiles": "O=c1[nH]c2cc(Cl)ccc2c(O)c1-c1cccc(Oc2ccccc2)c1", "note": "[L-701,324]", "values": [{"measurement": "anticonvulsant effects relative to ataxia (therapeutic index)", "setting": "[2]", "value": "anticonvulsant effects at doses that produced ataxia"}]}, {"smiles": "CNC1(c2ccccc2Cl)CCCCC1=O", "note": "(stereo not drawn) [ketamine, reference compound]", "values": [{"measurement": "suppression of operant responding (rates of responding)", "setting": "rats [3]; IP, 30 mg/kg (higher dose)", "value": "suppress operant responding"}, {"measurement": "ketamine-like discriminative stimulus effects (ketamine-lever selection)", "setting": "rats [3]; IP, 5.6-30 mg/kg", "value": "dose-dependent increases in ketamine-lever selection"}, {"measurement": "suppression of operant responding (rates of responding)", "setting": "rats [3]; SC, 10 mg/kg (higher dose)", "value": "suppress operant responding"}, {"measurement": "ketamine-like discriminative stimulus effects (ketamine-lever selection)", "setting": "rats [3]; SC, 1-10 mg/kg", "value": "dose-dependent increases in ketamine-lever selection"}, {"measurement": "Phosphoserine-845 GluR1/total GluR1 ratio", "setting": "GluR1", "value": "increased"}, {"measurement": "total β-catenin", "setting": "β-catenin", "value": "reduced"}, {"measurement": "conditioned place preference, an indicator of abuse potential", "setting": "rats [4]", "value": "induced conditioned place preference"}, {"measurement": "Hamilton Depression Rating Score", "setting": "[1]", "value": "significant reductions"}, {"measurement": "dissociative side effects", "setting": "rats [5]; 10 mg/kg subcutaneous, testing 20 min post dosing", "value": "severe dissociative side effects"}, {"measurement": "effect on floating times in the Porsolt test", "setting": "rats [5]; Sprague Dawley rats, 10 mg/kg IP, 20-60 min post dosing", "value": "reduced floating times"}, {"measurement": "prepulse inhibition, an indicator of dissociative effects", "setting": "rats [6]", "value": "decreased prepulse inhibition"}, {"measurement": "phosphoserine-9 GSK-3β/total GSK-3β ratio", "setting": "[7]", "value": "reduced"}]}, {"smiles": "NS(=O)(=O)c1cccc2c1c([N+](=O)[O-])cc1nc(O)c(O)nc12", "note": "[NBQX, reference compound]", "values": [{"measurement": "effect of NBQX pretreatment on the antidepressant-like effect of GLYX-13 (floating time)", "setting": "rats [5]; NBQX 10 mg/kg IP before GLYX-13 3 mg/kg IV, tested 1 hr post dosing", "value": "blocked the antidepressant-like effect of GLYX-13"}]}]}
